Reference: patent US9695155B2, “Herbicidal substituted pyrimidinyloxy benzene compounds” (E. I. DU PONT DE NEMOURS AND COMPANY, priority 2013, dated 2017)

Legend:
barnyardgrass [1] = assay: Test A preemergence; type: in vivo, Echinochloa crus-galli; details: for Plant response rating, Barnyardgrass / Barnyardgrass plant response rating: 0 to 100 scale where 0 is no effect and 100 is complete control; for Barnyardgrass plant response rating: 500 g ai/ha
Method in brief: (§1)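 Compounds in non-phytotoxic solvent with surfactant applied as soil spray preemergence, or postemergence to plants 2-10 cm at one- to two-leaf stage, in loam/sand. After approximately 10 days in greenhouse, injury rated visually versus untreated controls, 0 (no effect) to 100 (complete control).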

kochia [2] = assay: Test A preemergence; type: in vivo, Kochia scoparia; details: for Plant response rating, Kochia / Kochia plant response rating: 0 to 100 scale where 0 is no effect and 100 is complete control; for Kochia plant response rating: 500 g ai/ha
Method in brief: as §1

ragweed [3] = assay: Test A preemergence; type: in vivo, Ambrosia elatior; details: for Plant response rating, Ragweed / Ragweed plant response rating: 0 to 100 scale where 0 is no effect and 100 is complete control; for Ragweed plant response rating: 500 g ai/ha
Method in brief: as §1

Italian ryegrass [4] = assay: Test A preemergence; type: in vivo, Lolium multiflorum; details: for Plant response rating, Ryegrass, Italian / Ryegrass, Italian plant response rating: 0 to 100 scale where 0 is no effect and 100 is complete control; for Ryegrass, Italian plant response rating: 500 g ai/ha
Method in brief: as §1

giant foxtail [5] = assay: Test A preemergence; type: in vivo, Setaria faberii; details: for Plant response rating, Foxtail, Giant / Foxtail, Giant plant response rating: 0 to 100 scale where 0 is no effect and 100 is complete control; for Foxtail, Giant plant response rating: 500 g ai/ha
Method in brief: as §1

pigweed [6] = assay: Test A preemergence; type: in vivo, Amaranthus retroflexus; details: for Plant response rating, Pigweed / Pigweed plant response rating: 0 to 100 scale where 0 is no effect and 100 is complete control; for Pigweed plant response rating: 500 g ai/ha
Method in brief: as §1

barnyardgrass [7] = assay: Test A postemergence; type: in vivo, Echinochloa crus-galli; details: for Barnyardgrass plant response rating: 125 g ai/ha
Method in brief: as §1

kochia [8] = assay: Test A postemergence; type: in vivo, Kochia scoparia; details: for Kochia plant response rating: 125 g ai/ha
Method in brief: as §1

ragweed [9] = assay: Test A postemergence; type: in vivo, Ambrosia elatior; details: for Ragweed plant response rating: 125 g ai/ha
Method in brief: as §1

Italian ryegrass [10] = assay: Test A postemergence; type: in vivo, Lolium multiflorum; details: for Ryegrass, Italian plant response rating: 125 g ai/ha
Method in brief: as §1

giant foxtail [11] = assay: Test A postemergence; type: in vivo, Setaria faberii; details: for Foxtail, Giant plant response rating: 125 g ai/ha
Method in brief: as §1

pigweed [12] = assay: Test A postemergence; type: in vivo, Amaranthus retroflexus; details: for Pigweed plant response rating: 125 g ai/ha
Method in brief: as §1

wheat = assay: Test A postemergence; type: in vivo, Triticum aestivum; details: for Wheat plant response rating: 125 g ai/ha
Method in brief: as §1

corn = assay: Test A postemergence; type: in vivo, Zea mays; details: for Corn plant response rating: 125 g ai/ha
Method in brief: as §1

blackgrass = assay: Test A postemergence; type: in vivo, Alopecurus myosuroides; details: for Blackgrass plant response rating: 125 g ai/ha
Method in brief: as §1

galium = assay: Test A postemergence; type: in vivo, Galium aparine; details: for Galium plant response rating: 125 g ai/ha
Method in brief: as §1

rice = assay: Test B flooded paddy test; type: in vivo, Oryza sativa; details: Flood, 250 g ai/ha; 0 to 100 scale where 0 is no effect and 100 is complete control
Method in brief: (§2)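 Flooded to 3 cm at the 2-leaf stage, pots received compound through the paddy water and were kept at that depth under greenhouse conditions. After 13–15 days, effect was rated by eye relative to controls, 0 = none and 100 = complete control.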

sedge, umbrella = assay: Test B flooded paddy test; type: in vivo, Cyperus difformis; details: Flood, 250 g ai/ha; 0 to 100 scale where 0 is no effect and 100 is complete control
Method in brief: as §2

Heteranthera limosa = assay: Test B flooded paddy test; type: in vivo; details: Flood, 250 g ai/ha; 0 to 100 scale where 0 is no effect and 100 is complete control
Method in brief: as §2

barnyardgrass [13] = assay: Test B flooded paddy test; type: in vivo, Echinochloa crus-galli; details: Flood, 250 g ai/ha; 0 to 100 scale where 0 is no effect and 100 is complete control
Method in brief: as §2

[14] = 31 g ai/ha, 0 to 100 scale, 0 no effect, 100 complete control
[15] = 0 to 100 scale where 0 is no effect and 100 is complete control
[16] = 31 g ai/ha, visual, approximately 10 days
[17] = 500 g ai/ha, 0 to 100 scale where 0 is no effect and 100 is complete control

| Structure (SMILES) | Plant response rating, Barnyardgrass (barnyardgrass [1]; 125 g ai/ha) | Plant response rating, Kochia (kochia [2]; 125 g ai/ha) | Plant response rating, Ragweed (ragweed [3]; 125 g ai/ha) | Plant response rating, Ryegrass, Italian (Italian ryegrass [4]; 125 g ai/ha) | Plant response rating, Foxtail, Giant (giant foxtail [5]; 125 g ai/ha) | Plant response rating, Pigweed (pigweed [6]; 125 g ai/ha) | Barnyardgrass plant response rating (barnyardgrass [7]; [15]) | Kochia plant response rating (kochia [8]; [15]) | Ragweed plant response rating (ragweed [9]; [15]) | Ryegrass, Italian plant response rating (Italian ryegrass [10]; [15]) | Foxtail, Giant plant response rating (giant foxtail [11]; [15]) | Pigweed plant response rating (pigweed [12]; [15]) | Wheat plant response rating (wheat; [15]) | Corn plant response rating (corn; [15]) | Blackgrass plant response rating (blackgrass; [15]) | Galium plant response rating (galium; [15]) | Plant response rating, Rice (rice) | Plant response rating, Sedge, Umbrella (sedge, umbrella) | Plant response rating, Ducksalad (Heteranthera limosa) | Plant response rating, Barnyardgrass (barnyardgrass [13]) | further results |
| --- | --- | --- | --- | --- | --- | --- | --- | --- | --- | --- | --- | --- | --- | --- | --- | --- | --- | --- | --- | --- | --- |
| Fc1cnc(Oc2cccc(F)c2-n2cc(OCC(F)(F)F)cn2)nc1 [Compound 126] | 80 | 90 | 20 | 0 | 100 | 100 | 40 | 100 | 50 | 10 | 50 | 80 | 10 | 20 | 20 | 60 | 0 | 20 | 65 | 0 | Barnyardgrass plant response rating (0 to 100 scale) (barnyardgrass [1]; 31 g ai/ha): 10; Kochia plant response rating (0 to 100 scale) (kochia [2]; 31 g ai/ha): 40; Ragweed plant response rating (0 to 100 scale) (ragweed [3]; 31 g ai/ha): 0; Ryegrass, Italian plant response rating (0 to 100 scale) (Italian ryegrass [4]; 31 g ai/ha): 0; Foxtail, Giant plant response rating (0 to 100 scale) (giant foxtail [5]; 31 g ai/ha): 50; Pigweed plant response rating (0 to 100 scale) (pigweed [6]; 31 g ai/ha): 80; Plant response rating, Barnyardgrass (barnyardgrass [7]; [14]): 10; Plant response rating, Kochia (kochia [8]; [14]): 40; Plant response rating, Ragweed (ragweed [9]; [14]): 10; Plant response rating, Ryegrass, Italian (Italian ryegrass [10]; [14]): 0; Plant response rating, Foxtail, Giant (giant foxtail [11]; [14]): 10; Plant response rating, Pigweed (pigweed [12]; [14]): 50; Plant response rating, Wheat (wheat; [14]): 0; Plant response rating, Corn (corn; [14]): 0; Plant response rating, Blackgrass (blackgrass; [14]): 10; Plant response rating, Galium (galium; [14]): 20 |
| FC(F)(F)COc1cnn(-c2c(Br)cccc2Oc2ncc(Cl)cn2)c1 [Compound 128] | 70 | 70 | 0 | 10 | 100 | 100 | 50 | 80 | 20 | 30 | 60 | 100 | 10 | 30 | 40 | 80 | 0 | 85 | 85 | 0 | Plant response rating, Barnyardgrass (barnyardgrass [1]; [16]): 10; Plant response rating, Kochia (kochia [2]; [16]): 0; Plant response rating, Ragweed (ragweed [3]; [16]): 0; Plant response rating, Ryegrass, Italian (Italian ryegrass [4]; [16]): 0; Plant response rating, Foxtail, Giant (giant foxtail [5]; [16]): 60; Plant response rating, Pigweed (pigweed [6]; [16]): 100; Plant response rating, Barnyardgrass (barnyardgrass [7]; [14]): 10; Plant response rating, Kochia (kochia [8]; [14]): 50; Plant response rating, Ragweed (ragweed [9]; [14]): 0; Plant response rating, Ryegrass, Italian (Italian ryegrass [10]; [14]): 0; Plant response rating, Foxtail, Giant (giant foxtail [11]; [14]): 20; Plant response rating, Pigweed (pigweed [12]; [14]): 80; Plant response rating, Wheat (wheat; [14]): 0; Plant response rating, Corn (corn; [14]): 0; Plant response rating, Blackgrass (blackgrass; [14]): 30; Plant response rating, Galium (galium; [14]): 50 |
| CCCc1cnc(Oc2cccc(C#N)c2-n2cc(Br)cn2)nc1 [Compound 131] | 0 | 0 | 0 | 0 | 0 | 0 | 0 | 0 | 0 | 0 | 0 | 0 | 0 | 0 | 0 | 0 | 0 | 0 | 0 | 0 | Barnyardgrass plant response rating (barnyardgrass [1]): 0; Kochia plant response rating (kochia [2]): 0; Ragweed plant response rating (ragweed [3]): 0; Ryegrass, Italian plant response rating (Italian ryegrass [4]): 0; Foxtail, Giant plant response rating (giant foxtail [5]): 0; Pigweed plant response rating (pigweed [6]): 0; Plant response rating, Barnyardgrass (barnyardgrass [7]; [17]): 0; Plant response rating, Kochia (kochia [8]; [17]): 0; Plant response rating, Ragweed (ragweed [9]; [17]): 0; Plant response rating, Ryegrass, Italian (Italian ryegrass [10]; [17]): 0; Plant response rating, Foxtail, Giant (giant foxtail [11]; [17]): 0; Plant response rating, Pigweed (pigweed [12]; [17]): 0; Plant response rating, Wheat (wheat; [17]): 0; Plant response rating, Corn (corn; [17]): 0; Plant response rating, Blackgrass (blackgrass; [17]): 0; Plant response rating, Galium (galium; [17]): 0 |
| CS(=O)(=O)c1cccc(Oc2ncc(Cl)cn2)c1-n1cc(Br)cn1 [Compound 142] | 0 | 0 | 0 | 0 | 0 | 0 | 0 | 0 | 0 | 0 | 0 | 0 | 0 | 0 | 0 | 0 | 0 | 0 | 0 | 0 | Barnyardgrass plant response rating (barnyardgrass [1]): 0; Kochia plant response rating (kochia [2]): 50; Ragweed plant response rating (ragweed [3]): 20; Ryegrass, Italian plant response rating (Italian ryegrass [4]): 0; Foxtail, Giant plant response rating (giant foxtail [5]): 0; Pigweed plant response rating (pigweed [6]): 0; Plant response rating, Barnyardgrass (barnyardgrass [7]; [17]): 0; Plant response rating, Kochia (kochia [8]; [17]): 70; Plant response rating, Ragweed (ragweed [9]; [17]): 0; Plant response rating, Ryegrass, Italian (Italian ryegrass [10]; [17]): 0; Plant response rating, Foxtail, Giant (giant foxtail [11]; [17]): 0; Plant response rating, Pigweed (pigweed [12]; [17]): 0; Plant response rating, Wheat (wheat; [17]): 0; Plant response rating, Corn (corn; [17]): 0; Plant response rating, Blackgrass (blackgrass; [17]): 0; Plant response rating, Galium (galium; [17]): 0 |
| CC(C)Oc1cnn(-c2c(Br)cccc2Oc2ncc(Cl)cn2)c1 [Compound 148] | 50 | 0 | 0 | 0 | 70 | 10 | 30 | 30 | 20 | 0 | 40 | 50 | 0 | 20 | 10 | 60 | 0 | 30 | 40 | 0 | Plant response rating, Barnyardgrass (barnyardgrass [1]; [16]): 0; Plant response rating, Kochia (kochia [2]; [16]): 0; Plant response rating, Ragweed (ragweed [3]; [16]): 0; Plant response rating, Ryegrass, Italian (Italian ryegrass [4]; [16]): 0; Plant response rating, Foxtail, Giant (giant foxtail [5]; [16]): 10; Plant response rating, Pigweed (pigweed [6]; [16]): 0; Plant response rating, Barnyardgrass (barnyardgrass [7]; [14]): 0; Plant response rating, Kochia (kochia [8]; [14]): 0; Plant response rating, Ragweed (ragweed [9]; [14]): 10; Plant response rating, Ryegrass, Italian (Italian ryegrass [10]; [14]): 0; Plant response rating, Foxtail, Giant (giant foxtail [11]; [14]): 10; Plant response rating, Pigweed (pigweed [12]; [14]): 50; Plant response rating, Wheat (wheat; [14]): 0; Plant response rating, Corn (corn; [14]): 0; Plant response rating, Blackgrass (blackgrass; [14]): 0; Plant response rating, Galium (galium; [14]): 20 |
